In patent publication EP0346427B1, “MACROCYCLIC COMPOUNDS” (FISONS plc, priority 1987, dated 1989):
pIC50: −log10 of the molar value.

Tested on: lymphocytes
Experiment: Mixed Lymphocyte Reaction (MLR) II (Example B)
Type: cell-based
Conditions: concentration of compound required to inhibit the proliferation of lymphocytes by 50%, cells from two responding donors, 96 hours incubation, ³H-thymidine for the final 24 hours, read-out: IC₅₀
Experimental: Mixed Lymphoctye Reaction (MLR) II
The MLR test was performed in 96-well microtitre plates with each well containing 3 x 10⁵ cells from each of two responding donors in a final volume of 0.2ml RPMI 1640 medium supplemented with 10% human serum, L-glutamine and penicillin/streptomycin. The compound under test was dissolved at 10mg/ml in ethanol and further diluted in RPMI 1640. The cells were incubated at 37 °C in a humidified atmosphere of 5% carbon dioxide for 96 hours. ³H-thymidine (0.5uCi) was added for the final 24 hours of the incubation to provide a measure of proliferation.
A selection of compounds were tested according to Example B. The concentration of compound required to inhibit the proliferation of lymphocytes by 50% was measured, and the results were as follows: […]

Structure (SMILES) | pIC50
C=CCC1C=C(C)CC(C)CC(OC)C2OC(O)(C(=O)C(=O)N3CCCCC3C(=O)OC(C(C)=CC3CCC(OC)C(OC)C3)C(C)C(OC)CC1=O)C(C)CC2OC (stereo not drawn) [Example 1, 17-Allyl-1-hydroxy-12-[2-(3,4-dimethoxycyclohexyl)-1-methylvinyl]-14,23,25-trimethoxy-13,19,21,27-tetramethyl-11,28-dioxa-4-azatricyclo[22.3.1.0^4,9]octacos-18-ene-2,3,10,16-tetraone.] | > 6.00
C=CCC1C=C(C)CC(C)CC(OC)C2OC(O)(C(=O)C(=O)N3CCCCC3C(=O)OC(C(C)=CC3CCC(OC)C(OC)C3)C(C)C(O)CC1=O)C(C)CC2OC (stereo not drawn) [Example 2, 17-Allyl-1,14-dihydroxy-12-[2-(3,4-dimethoxycyclohexyl) -1-methylvinyl]-23,25-dimethoxy-13,19,21,27-tetramethyl-11, 28-dioxa-4-azatricyclo[22.3.1.0^4,9]octacos-18-ene-2,3,10, 16-tetraone] | > 6.00
C=CCC1C=C(C)CC(C)CC(OC)C2OC(O)(C(C)CC2OC)C(O)C(=O)N2CCCCC2C(=O)OC(C(C)=CC2CCC(O)C(OC)C2)C(C)C(O)CC1=O (stereo not drawn) [Example 5, 17-Allyl-1,2,14-trihydroxy-12-[2-(4-hydroxy-3-methoxycyclohexyl)-1-methylvinyl]-23,25-dimethoxy-13,19,21,27-tetra methyl-11,28-dioxa-4-azatricyclo[22.3.1.0^4,9]octacos-18-ene-3,10,16-trione] | > 6.00
C=CCC1C=C(C)CC(C)CC(OC)C2OC(O)(C(C)CC2OC)C(O)C(=O)N2CCCCC2C(=O)OC(C(C)=CC2CCC(O)C(OC)C2)C(C)C(O)CC1O (stereo not drawn) [Example 6, 17-Allyl-1,2,14,16-tetrahydroxy-12-[2-(4-hydroxy-3-methoxycyclohexyl)-1-methylvinyl]-23,25-dimethoxy-13,19,21, 27-tetramethyl-11,28-dioxa-4-azatricyclo[22.3.1.0^4,9] octacos-18-ene-3,10-dione] | > 6.00
CCCC1C=C(C)CC(C)CC(OC)C2OC(O)(C(=O)C(=O)N3CCCCC3C(=O)OC(C(C)=CC3CCC(O)C(OC)C3)C(C)CCC1=O)C(C)CC2OC (stereo not drawn) [Example 12, 17-Propyl-1-hydroxy-12-[2-(4-hydroxy-3-methoxycyclohexyl)-1-methylvinyl]-23,25-dimethoxy-13,19,21,27-tetra methyl-11,28-dioxa-4-azatricyclo[22.3.1.0^4,9]octacos-18-ene-2,3,10,16-tetraone] | > 6.00
C=CCC1C=C(C)CC(C)CC(OC)C2OC(O)(C(C)CC2OC)C(O)C(=O)N2CCCCC2C(=O)OC(C(C)=CC2CCC(O)C(OC)C2)C(C)CCC1=O (stereo not drawn) [Example 15, 17-Allyl-1,2-dihydroxy-12-[2-(4-hydroxy-3-methoxy-cyclohexyl)-1-methylvinyl]-23,25-dimethoxy-13,19,21,27-tetra methyl-11,28-dioxa-4-azatricyclo-[22.3.1.0^4,9]octacos-18-ene-3,10,16-trione] | > 6.00
C=CCC1C=C(C)CC(C)CC(OC)C2OC(O)(C(=O)C(=O)N3CCCCC3C(=O)OC(C(C)=CC3CCC(O)C(OC)C3)C(C)CCC1=O)C(C)CC2OC (stereo not drawn) [Example 17, 17-Allyl-l-hydroxy-12-[2-(4-hydroxy-3-methoxycyclohexyl)-1-methylvinyl]-23,25-dimethoxy-13,19,21,27-tetramethyl-11,28-dioxa-4-azatricyclo[22.3.1.0^4,9]octacos-18-ene-2,3,10,16-tetraone] | > 6.00
CCCC1C=C(C)CC(C)CC(OC)C2OC(O)(C(=O)C(=O)N3CCCCC3C(=O)OC(C(C)=CC3CCC(=O)C(OC)C3)C(C)CCC1=O)C(C)CC2OC (stereo not drawn) [Example 18, 17-Propyl-1-hydroxy-12-[2-(3-methoxy-4-oxocyclohexyl)-1-methylvinyl]-23,25-dimethoxy-13,19,21,27-tetramethyl-11,28-dioxa-4-azatricyclo[22.3.1.0^4,9]octacos-18-ene-2,3,10,16-tetraone.] | > 6.00
COC1CC(C=C(C)C2OC(=O)C3CCCCN3C(=O)C(=O)C3(O)OC(C(OC)CC(C)CC(C)=Cc4ccn(CCO)c4CC(O)C2C)C(OC)CC3C)CCC1O (stereo not drawn) [Example 22, 1,14-Dihydroxy-12-[2-(4-hydroxy-3-methoxycyclohexyl)-1-methylvinyl]-26,28-dimethoxy-17-(2-hydroxyethyl)-13,22,24,30-tetramethyl-11,31-dioxa-4,17-diazatetracyclo[25.3.1.0.^4,9 .0^16,20]hentriaconta-16(20),18,21-triene-2,3,10-trione.] | > 6.00
C=CCC1C=C(C)CC(C)CC(OC)C2OC(O)(C(=O)C(=O)N3CCCCC3C(=O)OC(C(C)=CC3CCC(OCOCCOC)C(OC)C3)C(C)C(O)CC1=O)C(C)CC2OC (stereo not drawn) [Example 27] | > 6.00
C=CCC1C=C(C)CC(C)CC(OC)C2OC(O)(C(C)CC2OC)C2(CO2)C(=O)N2CCCCC2C(=O)OC(C(C)=CC2CCC(O)C(OC)C2)C(C)C(O)CC1=O (stereo not drawn) [Example 30, 17-Allyl-1,14-dihydroxy-12-[2-(4-hydroxy-3-methoxycyclohexyl)-1-methylvinyl]-23,25-dimethoxy-13,19,21, 27-tetramethyl-11,28-dioxa-4-aza-spiro[tricyclo [22.3.1.0^4,9]octacos-18-ene-2,2'-oxirane]-3,10,16-trione.] | > 6.00
COC1CC(C=C(C)C2OC(=O)C3CCCCN3C(=O)C(=O)C3(O)OC(C(OC)CC(C)CC(C)=CC4=C(CC(O)C2C)OC(C[Se]c2ccccc2)C4)C(OC)CC3C)CCC1O (stereo not drawn) [Example 32, 1,14-Dihydroxy-12-[2-(4-hydroxy-3-methoxycyclohexyl)-1-methylvinyl]-26,28-dimethoxy-18-[(phenylseleno)methyl]-13, 22,24,30-tetramethyl-11,17,31-trioxa-4-azatetracyclo[25.3.1. 0.^4,90.^16,20]hentriaconta-16(20),21-diene-2,3,10-trione.] | > 6.00
